Bridge positions count the residues as written; N and C are the ends. Square brackets hold non-standard residues; d marks the D form. Peptide text beside a SMILES is read from it. Hyp = O=C(O)[C@@H]1C[C@@H](O)CN1; Cit = NC(=O)NCCC[C@H](N)C(=O)O
How the values were obtained:
hAMY3 receptor = biological target: T1, hAMY3 receptor (Homo sapiens, UniProt O60896+P30988); assay: cAMP assay for in vitro receptor activation, hAMY3-R; type: cell-based; details: cAMP assay, hAMY3 receptor; read-out: hAMY3R EC50
T1 sequence (P30988 25-474): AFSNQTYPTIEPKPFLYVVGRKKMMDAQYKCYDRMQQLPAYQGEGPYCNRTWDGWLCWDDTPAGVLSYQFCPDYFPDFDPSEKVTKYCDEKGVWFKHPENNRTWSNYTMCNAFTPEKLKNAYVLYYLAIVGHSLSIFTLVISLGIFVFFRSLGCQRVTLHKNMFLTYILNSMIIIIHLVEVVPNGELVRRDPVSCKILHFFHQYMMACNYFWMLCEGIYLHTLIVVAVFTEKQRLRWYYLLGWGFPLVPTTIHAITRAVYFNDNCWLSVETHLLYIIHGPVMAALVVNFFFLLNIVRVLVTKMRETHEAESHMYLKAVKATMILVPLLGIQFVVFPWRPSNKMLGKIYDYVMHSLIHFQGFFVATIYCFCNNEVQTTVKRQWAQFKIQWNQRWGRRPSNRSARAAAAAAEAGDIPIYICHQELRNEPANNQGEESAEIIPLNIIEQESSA
T1 sequence (O60896 24-148 partner): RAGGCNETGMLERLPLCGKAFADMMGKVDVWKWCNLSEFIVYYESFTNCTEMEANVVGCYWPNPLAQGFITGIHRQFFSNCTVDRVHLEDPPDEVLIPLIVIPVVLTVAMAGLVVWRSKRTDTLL
Summary of the method: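 Stable hAMY3 cells; DPBS + 0.05% casein + 0.5 mM IBMX; graded compound doses, 30 min, RT; cAMP via HTRF Gs kit, TR-FRET read at 1 h.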

[1] = Physical stability of peptide analogues (Thioflavin T fibrillation); type: physicochemical; details: maximum ThT signal normalized between hAMY maximum and buffer background; 40° C., shaking, four days; pH 7 per table title
Summary of the method: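 ThT fluorescence (450 nm excitation, 480 nm emission; 4 μM dye) was read every 10 min over four days at 40° C under 700 rpm shaking stress, after 1 h in pH 4 acetate or pH 7 phosphate (50 mM). Peak smoothed signal expressed as percent, scaled between buffer background and hAMY maximum.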

Row | EC50 (hAMY3 receptor) [nM] | Max ThT signal (%) [1] [%] | SMILES
1 | 0.031 | 5.200 | CC[C@H](C)[C@H](NC(=O)[C@H](CCC(N)=O)NC(=O)[C@H](Cc1c[nH]cn1)NC(=O)[C@H](C)NC(=O)[C@H](CC(C)C)NC(=O)[C@H](CCCNC(=N)N)NC(=O)[C@H](CCC(N)=O)NC(=O)[C@@H](NC(=O)[C@@H](NC(=O)[C@@H]1CSSC[C@H](NC(=O)CN)C(=O)N[C@@H](CCCNC(=N)N)C(=O)N[C@@H](Cc2ccccc2)C(=O)NCC(=O)N[C@@H]([C@@H](C)O)C(=O)N1)[C@@H](C)O)C(C)C)C(=O)N[C@@H](Cc1ccc(O)cc1)C(=O)N[C@@H](CCC(N)=O)C(=O)N[C@@H](Cc1ccccc1)C(=O)N[C@H](C(=O)N[C@@H](CC(=O)O)C(=O)N[C@@H](CCCCN)C(=O)N[C@@H](CC(=O)O)C(=O)N[C@@H](CCCCN)C(=O)N[C@@H](CC(=O)O)C(=O)N[C@@H](CC(N)=O)C(=O)N[C@H](C(=O)N[C@@H](C)C(=O)N1CCC[C@H]1C(=O)N[C@@H](CCCNC(=N)N)C(=O)N[C@H](C(=O)N[C@@H](CCCCN)C(=O)N[C@H](C(=O)N[C@@H](CO)C(=O)N1CCC[C@H]1C(=O)N[C@@H](CCC(N)=O)C(=O)NCC(=O)N1C[C@H](O)C[C@H]1C(N)=O)C(C)C)[C@@H](C)O)C(C)C)[C@@H](C)O [compound 132] (H-GCRFGTCTVQRLAHQIYQFTDKDKDNVAPRTKVSPQG[Hyp]-NH2; disulfide 2-7; N-terminus assumed)
2 | 0.056 | 2.000 | CC[C@H](C)[C@H](NC(=O)[C@H](CCC(N)=O)NC(=O)[C@H](Cc1c[nH]cn1)NC(=O)[C@H](C)NC(=O)[C@H](CC(C)C)NC(=O)[C@H](CCCNC(=N)N)NC(=O)[C@H](CCC(N)=O)NC(=O)[C@@H](NC(=O)[C@@H](NC(=O)[C@@H]1CSSC[C@H](NC(=O)CN)C(=O)N[C@@H](CCCNC(=N)N)C(=O)N[C@@H]([C@@H](C)O)C(=O)NCC(=O)N[C@@H]([C@@H](C)O)C(=O)N1)[C@@H](C)O)C(C)C)C(=O)N[C@@H](Cc1ccc(O)cc1)C(=O)N[C@@H](CCC(N)=O)C(=O)N[C@@H](Cc1ccccc1)C(=O)N[C@H](C(=O)N[C@@H](CC(=O)O)C(=O)N[C@@H](CCCCN)C(=O)N[C@@H](CC(=O)O)C(=O)N[C@@H](CCCCN)C(=O)N[C@@H](CC(=O)O)C(=O)N[C@@H](CC(N)=O)C(=O)N[C@H](C(=O)N[C@@H](C)C(=O)N1CCC[C@H]1C(=O)N[C@@H](CCCNC(=N)N)C(=O)N[C@@H](CO)C(=O)N[C@@H](CC(N)=O)C(=O)N[C@H](C(=O)N[C@@H](CO)C(=O)N1CCC[C@H]1C(=O)N[C@@H](CC(N)=O)C(=O)NCC(=O)N1C[C@H](O)C[C@H]1C(N)=O)C(C)C)C(C)C)[C@@H](C)O [compound 166] (H-GCRTGTCTVQRLAHQIYQFTDKDKDNVAPRSNVSPNG[Hyp]-NH2; disulfide 2-7; N-terminus assumed)
3 | 0.04 | 25.800 | CC[C@H](C)[C@H](NC(=O)[C@H](CC(N)=O)NC(=O)[C@H](CO)NC(=O)[C@H](CCCNC(=N)N)NC(=O)[C@@H]1CCCN1C(=O)[C@H](C)NC(=O)[C@@H](NC(=O)[C@H](CC(N)=O)NC(=O)[C@H](CC(=O)O)NC(=O)[C@H](CCCCN)NC(=O)[C@H](CC(=O)O)NC(=O)[C@H](CCCCN)NC(=O)[C@H](CC(=O)O)NC(=O)[C@@H](NC(=O)[C@H](Cc1ccccc1)NC(=O)[C@H](CCC(N)=O)NC(=O)[C@H](Cc1ccc(O)cc1)NC(=O)[C@@H](NC(=O)[C@H](CCC(N)=O)NC(=O)[C@H](Cc1c[nH]cn1)NC(=O)[C@H](C)NC(=O)[C@H](CC(C)C)NC(=O)[C@H](Cc1c[nH]c2ccccc12)NC(=O)[C@H](CCC(N)=O)NC(=O)[C@@H](NC(=O)[C@@H](NC(=O)[C@@H]1CSSC[C@H](NC(=O)CN)C(=O)N[C@@H](CCCNC(=N)N)C(=O)N[C@@H]([C@@H](C)O)C(=O)NCC(=O)N[C@@H]([C@@H](C)O)C(=O)N1)[C@@H](C)O)C(C)C)[C@@H](C)CC)[C@@H](C)O)C(C)C)C(=O)NCC(=O)N1CCC[C@H]1C(=O)N[C@@H](CC(N)=O)C(=O)NCC(=O)N1C[C@H](O)C[C@H]1C(N)=O [compound 352] (H-GCRTGTCTVQWLAHQIYQFTDKDKDNVAPRSNIGPNG[Hyp]-NH2; disulfide 2-7; N-terminus assumed)

The next lines start with the compound.

Row | SMILES | EC50 (hAMY3 receptor) [nM] | Max ThT signal (%) [1] [%]
4 | CC[C@H](C)[C@H](NC(=O)[C@H](CCCCN)NC(=O)[C@H](CO)NC(=O)[C@H](CCCNC(=N)N)NC(=O)[C@@H]1CCCN1C(=O)[C@H](C)NC(=O)[C@@H](NC(=O)[C@H](CC(N)=O)NC(=O)[C@H](CC(=O)O)NC(=O)[C@H](CCCCN)NC(=O)[C@H](CC(=O)O)NC(=O)[C@H](CCCCN)NC(=O)[C@H](CC(=O)O)NC(=O)[C@@H](NC(=O)[C@H](Cc1ccccc1)NC(=O)[C@H](CCC(N)=O)NC(=O)[C@H](Cc1ccc(O)cc1)NC(=O)[C@@H](NC(=O)[C@H](CCC(N)=O)NC(=O)[C@H](Cc1c[nH]cn1)NC(=O)[C@H](C)NC(=O)[C@H](CC(C)C)NC(=O)[C@H](CCCNC(=N)N)NC(=O)[C@H](CCC(N)=O)NC(=O)[C@@H](NC(=O)[C@@H](NC(=O)[C@@H]1CSSC[C@H](NC(=O)CN)C(=O)N[C@@H](CCCNC(=N)N)C(=O)N[C@@H](Cc2ccccc2)C(=O)NCC(=O)N[C@@H]([C@@H](C)O)C(=O)N1)[C@@H](C)O)C(C)C)[C@@H](C)CC)[C@@H](C)O)C(C)C)C(=O)NCC(=O)N1CCC[C@H]1C(=O)N[C@@H](CCC(N)=O)C(=O)NCC(=O)N[C@@H](Cc1ccc(O)cc1)C(N)=O [compound 387] (H-GCRFGTCTVQRLAHQIYQFTDKDKDNVAPRSKIGPQGY-NH2; disulfide 2-7; N-terminus assumed) | 0.04 | 14.300
5 | CC(C)C[C@H](NC(=O)[C@H](CCCNC(N)=O)NC(=O)[C@H](CCC(N)=O)NC(=O)[C@@H](NC(=O)[C@@H](NC(=O)[C@@H]1CSSC[C@H](NC(=O)CN)C(=O)N[C@@H](CCCNC(=N)N)C(=O)N[C@@H](Cc2ccccc2)C(=O)NCC(=O)N[C@@H]([C@@H](C)O)C(=O)N1)[C@@H](C)O)C(C)C)C(=O)N[C@@H](C)C(=O)N[C@@H](Cc1c[nH]cn1)C(=O)N[C@@H](Cc1ccccc1)C(=O)N[C@@H](CC(C)C)C(=O)N[C@@H](Cc1ccc(O)cc1)C(=O)N[C@@H](CCC(N)=O)C(=O)N[C@@H](Cc1ccccc1)C(=O)N[C@H](C(=O)N[C@@H](CC(=O)O)C(=O)N[C@@H](CCCCN)C(=O)N[C@@H](CC(=O)O)C(=O)N[C@@H](CCCCN)C(=O)N[C@@H](CC(=O)O)C(=O)N[C@@H](CC(N)=O)C(=O)N[C@H](C(=O)N[C@@H](C)C(=O)N1CCC[C@H]1C(=O)N[C@@H](CCCNC(=N)N)C(=O)N[C@H](C(=O)N[C@@H](CC(N)=O)C(=O)N[C@H](C(=O)NCC(=O)N[C@@H](CO)C(=O)N[C@@H](CC(N)=O)C(=O)N[C@H](C(=O)N[C@@H](Cc1ccc(O)cc1)C(N)=O)[C@@H](C)O)C(C)C)[C@@H](C)O)C(C)C)[C@@H](C)O [compound 264] (H-GCRFGTCTVQ[Cit]LAHFLYQFTDKDKDNVAPRTNVGSNTY-NH2; disulfide 2-7) | 0.006 | 1.350

From US12139520B2 (priority 2020, dated 2024)
